# Where a name gives a salt, the structure may show the parent alone. Read-outs that look alike come from different tables or passages of the source.
# Columns and labels:
# [1] = tested on: L1210 murine leukemia cell lines; experiment: In vitro antitumor screening (PDC test), L1210 murine leukemia cell growth; type: cell-based; details: Mus musculus, 72 h; L1210 cells, 37° C., three days; value is ID50 multiplied by 10^7
# Experimental: Another test protocol is the in vitro antitumor screening (PDC test) of compounds of the present invention on L1210 murine leukemia cell lines. L1210 cells, a murine leukemia cell line, were grown in RPMI 1640 supplemented with 5% fetal bovine serum and gentamicin (50 μg/ml).
# Drug dilutions were prepared in the apropriate solvent and 20 μl of each dilution were added to 24-well Linbro tissue culture plats, followed by the addition of M 2.0 ml of cell suspension containing 3×10^4 cells per ml. Solvent and medium controls were included in each test. After incubation at 37° C. for three days in 5% CO2, the contents of each well were removed and the cells counted in a ZBI Coulter counter. Percent growth was calculated relative to the controls and the levels of drug activity wre expressed as ID50 in moles per liter using probit paper.
# Bacillus cereus = experiment: In vitro antibacterial (ABMF) microdilution test, Bacillus cereus; type: cell-based; details: Mueller-Hinton broth, 37° C., 16-24 hours, read-out: ABMF minimal inhibitory conc, B. cer.
# Excerpt: (§1) Still another test protocol is the in vitro antibacterial (ABMF) test which is a recognized standard microdilution susceptibility procedure in Mueller-Hinton broth against Gram-positive and Gram-negative bacterial test organisms. The procedure is a modification of a state-of-the-art procedure reported in Manual of Clinical Microbiology, Lennette, E. H., ed., by Barry, A. L. and C. Thornsberry at pages 463-474 and by Gavan, T. L. and A. L. Barry at pages 459-462, American Society for Microbiology, Washington, 1980.
# (§2) In the test, a given bacterial culture is used to inoculate individual test wells of microdilution trays containing growth medium and test compound, the latter in a microdilution series: 1000, 333, 111, 37, 12, 4, 1.4, and 0.46 micrograms per milliliter. […] For convenience, values are reported for Escherichia coli, Corynebacterium Sp. ATCC 21698, Branhamella catarrhalis, Streptococcus pneumoniae, and Bacillus cereus.
# Branhamella catarrhalis = experiment: In vitro antibacterial (ABMF) microdilution test, Branhamella catarrhalis; type: cell-based; details: Moraxella catarrhalis; Mueller-Hinton broth, 37° C., 16-24 hours; read-out: ABMF minimal inhibitory conc, B. cat.
# Excerpt: as §1, §2
# [2] = tested on: lymphocytic leukemia P388; experiment: In vivo lymphocytic leukemia P388 test; design: species or system CD2 F1 mice; details: Mus musculus, P388, ip, read-out: P388 in vivo T/C × 100
# Experimental: Another test protocol is the in vivo lymphocytic leukemia P388 test. the animals used are either male or female CD2 F1 mice, six or seven animals per test group. The tumor transplant is by intraperitoneal injection of dilute ascitic fluid containing cells of lymphocytic leukemia P388. The test compounds are administered intraperitoneally once daily for five consecutive days at various doses following tumor inoculation. The animals are weighed and survivors are recorded on a regular basis for 30 days. A compound is designated "toxic" if, at a given dose, all animals die prior to four days after the first injection of drug. A ratio of survival time for treated (T)/control (C) animals is calculated. A criterion for efficacy is a ratio T/C times 100 greater than or equal to 125. See Cancer Chemotherapy Reports, Part 3, 3, 1 (1972) for a comprehensive discussion of the protocol.
# HCT-8 cells = experiment: In vitro proliferating human colon adenocarcinoma (HCA) cell screen, HCT-8 cells; type: cell-based; details: 60-65 hours at 37° C., value is ID50 multiplied by 10^7;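 further: ID50 is the molar concentration giving 50% growth inhibition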
# Experimental: One test protocol is the in vitro proliferating human colon adenocarcinoma (HCA) cell screen. In this test, HCT-8 cells (HCA cell line received from Yale University) are trypsinized using trypsin-EDTA. A single cell suspension is achieved by passing the cells through a 26-gauge needle with a 20-cc syringe. A cell suspension is prepared using RPMI 1640+10% FCS+50 μg/ml gentamicin sulfate with a cell concentration of approximately 5,000 cells/ml. The cell suspension is dispensed in Linbro 24-well plates; 1 ml/well. The plates are incubated for approximately 48 hours at 37° C. in a 5% CO2 atmosphere. At this time test compounds are added in the appropriate concentration. Ten μl of the appropriate dilution is added to each well for a titration test. The plates are reincubated an additional 60-65 hours at 37° C. in a 5% CO2 atmosphere. The cells are lysed using a mix of cationic surfactant, glacial acetic acid and sodium chloride. Two ml of the lysed cell suspension from each well is added to 8 ml of diluent. The number of nuclei is determined using a Coulter counter (ZBI model), and a percent growth for each drug concentration is calculated.
# [3] = tested on: Corynebacterium Sp. ATCC 21698; experiment: In vitro antibacterial (ABMF) microdilution test, Corynebacterium Sp.; type: cell-based; details: ATCC21698, Mueller-Hinton broth, 37° C., 16-24 hours, read-out: ABMF minimal inhibitory conc, Coryn. Species
# Excerpt: as §1, §2
# Streptococcus pneumoniae = experiment: In vitro antibacterial (ABMF) microdilution test, Streptococcus pneumoniae; type: cell-based; details: Mueller-Hinton broth, 37° C., 16-24 hours, read-out: ABMF minimal inhibitory conc, S. pneu.
# Excerpt: as §1, §2
# Escherichia coli = experiment: In vitro antibacterial (ABMF) microdilution test, Escherichia coli; type: cell-based; details: Mueller-Hinton broth, 37° C., 16-24 hours, read-out: ABMF minimal inhibitory conc, E. coli
# Excerpt: as §1, §2
# [4] = intraperitoneal, once daily for five days, survival time treated/control
# [5] = 50 mg/kg, intraperitoneal, once daily for five days, survival time treated/control
SMILES,IC50 [1] [nM],MIC (Bacillus cereus) [µg/mL],MIC (Branhamella catarrhalis) [µg/mL],"response vs control in vivo at 25 mg/kg [2, 4] [%]","response vs control in vivo at 50 mg/kg [2, 5] [%]","response vs control in vivo at 100 mg/kg [2, 4] [%]","response vs control in vivo at 200 mg/kg [2, 4] [%]",IC50 (HCT-8 cells) [nM],MIC [3] [µg/mL],MIC (Streptococcus pneumoniae) [µg/mL],MIC (Escherichia coli) [µg/mL],"response vs control in vivo at 12.5 mg/kg [2, 4] [%]",response vs control in vivo at 50 mg/kg ([2]; 120 h) [%]
"CCOc1ccc2[nH]c3c([N+](=O)[O-])ccc(NCCN(C)C)c3c(=O)c2c1.CS(=O)(=O)O [Example 10, 1-[[2-(Dimethylamino)ethyl]amino]-7-ethoxy-4-nitro-9(10H)-acridinone, methanesulfonate (1:1)]",810,> 1000,> 1000,128,162,193,260,360,> 1000,> 1000,> 1000,–,–
"CCN(CC)CCNc1ccc([N+](=O)[O-])c2[nH]c3ccc(O)cc3c(=O)c12 [Example 2, 1-[[2-(Diethylamino)ethyl]amino]-7-hydroxy-4-nitro-9(10H)-acridinone, methanesulfonate (1:1), hydrate (1:1)]",6.7,< 0.46,< 0.46,–,–,–,–,4.5,< 0.46,< 0.46,< 0.46,250,–
"CCOc1ccc2[nH]c3c([N+](=O)[O-])ccc(NCCN(CCO)CCO)c3c(=O)c2c1 [Example 19, 1-[[2-Bis(2-hydroxyethyl)amino]ethyl]amino]-7-ethoxy-4-nitro-9(10H)-acridinone, methanesulfonate 0.8 hydrate]",1500,> 1000,111,–,–,130,147,1010,> 1000,> 1000,> 1000,–,–
"CCOc1ccc2[nH]c3c([N+](=O)[O-])ccc(NC(C)CN(C)C)c3c(=O)c2c1 (stereo not drawn) [Example 13, 1[[2-(Dimethylamino)-1-methylethyl]amino]-7-ethoxy-4-nitro-9(10H)-acridinone, monomethanesulfonate, hyrate]",1090,12.3,4.1,180,–,–,–,500,< 0.46,1.4,12.3,–,227
"CCCCOc1ccc2[nH]c3c([N+](=O)[O-])ccc(NCCNCCO)c3c(=O)c2c1 [Example 18, 7-Butoxy-1-[[2-[(2-hydroxyethyl)amino]ethyl]amino]-4-nitro-9(10H)-acridinone, methanesulfonate, 0.3 hydrate]",350,333,333,136,–,–,–,400,37,37,111,121,–
"CCN(CC)CCCNc1ccc([N+](=O)[O-])c2[nH]c3ccc(OC)cc3c(=O)c12 [Example 26, 1-[[3-(Diethylamino)propyl]amino]-7-methoxy-4-nitro-9(10H)-acridinone, methanesulfonate (salt) (1:1)]",78,12.3,< 0.46,142,161,198,–,270,0.46,4.1,12.3,127,–
"COc1ccc2[nH]c3c([N+](=O)[O-])ccc(NC(C)CN(C)C)c3c(=O)c2c1 (stereo not drawn) [Example 12, 1-[[2-Dimethylamino)-1-methylethyl]amino]-7-methoxy-4-nitro-9(10H)-acridinone, methanesulfonate, 1.25 hydrate]",880,4.1,4.1,122,144,180,245,450,4.1,< 0.46,1.4,–,–
"CCOc1ccc2[nH]c3c([N+](=O)[O-])ccc(NCCN(CC)CC)c3c(=O)c2c1.CS(=O)(=O)O [Example 4, 1-[[2-(Diethylamino)ethyl]amino]-7-ethoxy-4-nitro-9(10H)-acridinone, methanesulfonate (1:1)]",680,> 1000,37,149,211,273,–,400,4.1,> 1000,> 1000,129,–
"COc1ccc2c(c1)c(=O)c1c(NCCCN(C)C)ccc([N+](=O)[O-])c1n2C.CS(=O)(=O)O [Example 34, 1-[[3-(Dimethylamino)propyl]amino]-7-methoxy-10-methyl-4-nitro-9(10H)-acridinone, methanesulfonate (1:1)]",780,12.3,12.3,–,123,136,–,710,12.3,12.3,12.3,–,–
"COc1ccc2[nH]c3c([N+](=O)[O-])ccc(NCCN(C)C)c3c(=O)c2c1.CS(=O)(=O)O [Example 9, 1-[[2-(Dimethylamino)ethyl]amino]-7-methoxy-4-nitro-9(10H)-acridinone, methanesulfonate (1:1)]",260,> 1000,< 0.46,124,146,201,269,890,< 0.46,< 0.46,> 1000,–,–
"O=c1c2ccccc2[nH]c2c([N+](=O)[O-])ccc(NCCNCCO)c12 [Example 16, 1-[[2-[(2-hydroxyethyl)amino]ethyl]amino]-4-nitro-9(10H)-acridinone, methanesulfonate (1:1), hydrate (1:1)]",330,1.4,< 0.46,125,159,–,–,200,< 0.46,1.4,1.4,–,–

# Reference: US4626540A, “Substituted 1-amino-4-nitro-acridinones and methods of treating bacterial infections and leukemia with them” (Warner-Lambert Company, priority 1984, dated 1986)
